Patent EP0845478B1, “Reductive alkylation of glycopeptide antibiotics” (ELI LILLY AND COMPANY, priority 1996, dated 1998)
“Also recorded” adds a separate entry of the source.

What was measured:
[1] = Solubility of copper salts in methanol, with pH; format: physicochemical; conditions: for Salt Solubility in MeOH: copper salt (0.165 mmol) in 50 mL methanol, stirred at ambient temperature for 15 min; for pH: pH of copper salt (0.165 mmol) in 50 mL methanol after 15 min stirring, before nucleus is added
Experimental: (§1) The same copper salts were further evaluated for their solubility in methanol and for the solubility of the starting glycopeptide antibiotic in their presence. The procedure was as follows: the copper salt (0.165 mmol) was added to 50 mL methanol and stirred at ambient temperature for 15 min. Solubility data was recorded as well as the pH. […] Solubility and pH data was recorded.

[2] = Solubility of the starting glycopeptide antibiotic (nucleus) in methanol in the presence of the copper salt, with pH; format: physicochemical; conditions: stirred 15 min; for nucleus solubility in presence of salt: Glycopeptide nucleus (0.55 g, 0.26 mmol) added to copper salt (0.165 mmol) in 50 mL methanol; for pH: pH after addition of glycopeptide nucleus (0.26 mmol) to copper salt in 50 mL methanol
Experimental: as §1

SMILES: O.O.O.O.O.O=S(=O)([O-])[O-].[Cu+2] [CuSO4·5H2O]
- Salt Solubility in MeOH [1]: soluble, clear colorless
- pH [1]: 3.7
- nucleus solubility in presence of salt [2]: slightly, cloudy purple
- pH [2]: 6.2

SMILES: CCCCC(CC)C(=O)[O-].CCCCC(CC)C(=O)[O-].[Cu+2] (centres unmarked) [Cu(2-ethylhexanoate)2]
- pH [1]: 6.5
- pH [2]: ~6.7

SMILES: CC(=O)[O-].CC(=O)[O-].[Cu+2] [Cu(OAc)2]
- pH [1]: 6.5
- pH [2]: ~6.7

SMILES: O=C([O-])C(F)(F)F.O=C([O-])C(F)(F)F.[Cu+2] [Cu(O2CCF3)2]
- Salt Solubility in MeOH [1]: soluble, clear lite blue
- pH [1]: 4.4
- nucleus solubility in presence of salt [2]: soluble, clear purple
- pH [2]: 6.2

SMILES: [Cu+2].[OH-].[OH-] [Cu(OH)2]
- Salt Solubility in MeOH [1]: nearly insoluble; also recorded: low, cloudy lite blue soln
- pH [1]: 6.2
- nucleus solubility in presence of salt [2]: slightly, cloudy lite blue
- pH [2]: 7.0

SMILES: O=C([O-])CCCC1CCCCC1.O=C([O-])CCCC1CCCCC1.[Cu+2] [Cu(cyclohexanebutyrate)2]
- Salt Solubility in MeOH [1]: faint cloudiness, lite blue-green
- pH [1]: 6.0
- nucleus solubility in presence of salt [2]: complete dissolution; also recorded: soluble, clear purple
- pH [2]: ~6.7

SMILES: [F][Cu][F] [CuF2]
- Salt Solubility in MeOH [1]: nearly insoluble; also recorded: low, cloudy white soln
- pH [1]: 5.9
- nucleus solubility in presence of salt [2]: slightly, cloudy pink
- pH [2]: 7.0

SMILES: [Cl][Cu][Cl] [CuCl2]
- Salt Solubility in MeOH [1]: soluble, clear colorless
- pH [1]: 3.2
- nucleus solubility in presence of salt [2]: slightly, cloudy purple
- pH [2]: 6.6

SMILES: [Br][Cu][Br] [CuBr2]
- Salt Solubility in MeOH [1]: soluble, clear yellow
- pH [1]: 2.8
- nucleus solubility in presence of salt [2]: soluble, clear purple
- pH [2]: 5.9
